Assay results from patent US20260199242A1, “PROCESSES FOR MAKING CYCLIC LIPID IMPLANTS FOR INTRAOCULAR USE” (Allergan, Inc., priority 2006, published 2026).

Tests used:
[1] = Potency of bimatoprost from melt-extruded implants as percent of label strength by HPLC (FIG. 1); type: physicochemical
Procedure: Typical extrusion temperatures for a PLGA implant are from about 85° C. to about 110° C. […] As shown by FIG. 1, five different formulation bimatoprost containing sustained release implants or drug delivery systems (“DDS”) were made. Proceeding from left to right to left along the x axis of FIG. 1 these five formulations were: The theoretical maximum potency of bimatoprost is by definition equal to the label strength (“LS”) of the bimatoprost. For example, the label strength of a one milligram implant which comprises 150 μg of bimatoprost is 150 μg. […] We determined the potency of the bimatoprost released from the implants made as a percent of their label strength using HPLC (high pressure liquid chromatography). Thus, the bimatoprost implants (each weighing about 1 mg) made were dissolved in 0.5 mL acetonitrile in a 10 mL volumetric flask and sonicated for 5 min. The flask was then filled to volume with diluent (72:18:10 water:acetonitrile:methanol); mixed well, and transferred to a HPLC vial for analysis. The HPLC analysis was performed using a Waters Alliance 2695 HPLC system, Waters Symmetry®C18 reverse-phase column 4.6 mm×75 mm, and a Waters 2487 UV detector. The conditions for analysis were flow rate of 1.5 mL/minute, UV wavelength of 210 nm, column temperature of 30° C. and mobile phase of 72:18:10 (water:acetonitrile:methanol, v/v/v) with 0.03% (w/v) trifluoroacetic acid. The injection volume of samples and standards assayed was 75 uL with a cycle time of 45 min.

[2] = cited from earlier work
[3] = lower temperature and faster rate in a low pH environment; cited from earlier work
[4] = test system: patients with age-related macular degeneration (ARMD); settings: infusion; cited from earlier work

CCNC(=O)CCC/C=C\C[C@@H]1[C@@H](/C=C/[C@@H](O)CCc2ccccc2)[C@H](O)C[C@@H]1O [Bimatoprost]
potency of the bimatoprost released from the DDS (percent of label strength) ([1]; DDS made by melt extrusion carried out at 57° C.): more than 90%
potency of the bimatoprost released from the DDS (percent of label strength) ([1]; DDS made by melt extrusion carried out at 85° C.): about 40%
bimatoprost therapeutically inactive (loss of potency) ([1]; extrusion temperature of about 80° C. or higher): ≤ 50%
solubility in water [2]: slightly soluble
temperature above which bimatoprost can degrade if heated [3]: greater than 65 °C

CCCCC[C@H](O)/C=C/[C@H]1[C@H](O)CC(=O)[C@@H]1CCCCCCC(=O)O [prostaglandin E1]
visual acuity [4]: improvement in visual acuity
